Measurements as given in patent US20200331850A1, “NOVEL SULFONAMIDE CARBOXAMIDE COMPOUNDS” (Inflazome Limited, priority 2017, published 2020).
Structures can show the parent of a compound that is named as a salt.

Target: NLRP3 (Homo sapiens, UniProt Q96P20)
Test: THP-1 cells pyroptosis assay (LPS + nigericin, resazurin readout)
Assay type: cell-based
Design: Seed THP-1 cells (25,000 cells/well) containing 1.0 μg/ml LPS in 40 μl of RPMI medium; host or cells: THP-1 cells, LPS-primed and nigericin-stimulated
Details: NLRP3 inhibitory activity in THP-1 cells, 1.0 μg/ml LPS, 5 μM nigericin
Description: It is well established that the activation of NLRP3 leads to cell pyroptosis and this feature plays an important part in the manifestation of clinical disease (Yan-gang Liu et al., Cell Death & Disease, 2017, 8(2), e2579; Alexander Wree et al., Hepatology, 2014, 59(3), 898-910; Alex Baldwin et al., Journal of Medicinal Chemistry, 2016, 59(5), 1691-1710; Ema Ozaki et al., Journal of Inflammation Research, 2015, 8, 15-27; Zhen Xie & Gang Zhao, Neuroimmunology Neuroinflammation, 2014, 1(2), 60-65; Mattia Cocco et al., Journal of Medicinal Chemistry, 2014, 57(24), 10366-10382; T. Satoh et al., Cell Death & Disease, 2013, 4, e644). Therefore, it is anticipated that inhibitors of NLRP3 will block pyroptosis, as well as the release of pro-inflammatory cytokines (e.g. IL-1β) from the cell. THP-1 cells (ATCC # TIB-202) were grown in RPMI containing L-glutamine (Gibco #11835) supplemented with 1 mM sodium pyruvate (Sigma # S8636) and penicillin (100 units/ml)/streptomycin (0.1 mg/ml) (Sigma # P4333) in 10% Fetal Bovine Serum (FBS) (Sigma # F0804). The cells were routinely passaged and grown to confluency (˜10^6 cells/ml). On the day of the experiment, THP-1 cells were harvested and resuspended into RPMI medium (without FBS). The cells were then counted and viability (>90%) checked by Trypan blue (Sigma # T8154). Appropriate dilutions were made to give a concentration of 625,000 cells/ml. To this diluted cell solution was added LPS (Sigma # L4524) to give a […] Final Assay Concentration (FAC). 40 μl of the final preparation was aliquoted into each well of a 96-well plate. The plate thus prepared was used for compound screening. The following method step-by-step assay was followed for compound screening. • 1. Seed THP-1 cells (25,000 cells/well) containing 1.0 μg/ml LPS in 40 μl of RPMI medium (without FBS) in 96-well, black walled, clear bottom cell culture plates coated with poly-D-lysine (VWR #734-0317) • 2. Add 5 μl compound (8 points half-log dilution, with 10 μM top dose) or vehicle (DMSO 0.1% FAC) to the appropriate wells • 3. […] Add 5 μl nigericin (Sigma # N7143) (FAC 5 μM) to all wells • 5. […] At the end of the incubation period, spin plates at 300×g for 3 mins and remove supernatant • 7. Then add 50 μl of resazurin (Sigma # R7017) (FAC 100 μM resazurin in RPMI medium without FBS) and incubate plates for a further 1-2 hrs at 37° C. and 5% CO2 • 8. Plates were read in an Envision reader at Ex 560 nm and Em 590 nm • 9. IC50 data is fitted to a non-linear regression equation (log inhibitor vs response-variable slope 4-parameters) The results of the pyroptosis assay performed are summarised in Table 1 below as THP IC50.

NLRP3, sequence (Q96P20 whole entry): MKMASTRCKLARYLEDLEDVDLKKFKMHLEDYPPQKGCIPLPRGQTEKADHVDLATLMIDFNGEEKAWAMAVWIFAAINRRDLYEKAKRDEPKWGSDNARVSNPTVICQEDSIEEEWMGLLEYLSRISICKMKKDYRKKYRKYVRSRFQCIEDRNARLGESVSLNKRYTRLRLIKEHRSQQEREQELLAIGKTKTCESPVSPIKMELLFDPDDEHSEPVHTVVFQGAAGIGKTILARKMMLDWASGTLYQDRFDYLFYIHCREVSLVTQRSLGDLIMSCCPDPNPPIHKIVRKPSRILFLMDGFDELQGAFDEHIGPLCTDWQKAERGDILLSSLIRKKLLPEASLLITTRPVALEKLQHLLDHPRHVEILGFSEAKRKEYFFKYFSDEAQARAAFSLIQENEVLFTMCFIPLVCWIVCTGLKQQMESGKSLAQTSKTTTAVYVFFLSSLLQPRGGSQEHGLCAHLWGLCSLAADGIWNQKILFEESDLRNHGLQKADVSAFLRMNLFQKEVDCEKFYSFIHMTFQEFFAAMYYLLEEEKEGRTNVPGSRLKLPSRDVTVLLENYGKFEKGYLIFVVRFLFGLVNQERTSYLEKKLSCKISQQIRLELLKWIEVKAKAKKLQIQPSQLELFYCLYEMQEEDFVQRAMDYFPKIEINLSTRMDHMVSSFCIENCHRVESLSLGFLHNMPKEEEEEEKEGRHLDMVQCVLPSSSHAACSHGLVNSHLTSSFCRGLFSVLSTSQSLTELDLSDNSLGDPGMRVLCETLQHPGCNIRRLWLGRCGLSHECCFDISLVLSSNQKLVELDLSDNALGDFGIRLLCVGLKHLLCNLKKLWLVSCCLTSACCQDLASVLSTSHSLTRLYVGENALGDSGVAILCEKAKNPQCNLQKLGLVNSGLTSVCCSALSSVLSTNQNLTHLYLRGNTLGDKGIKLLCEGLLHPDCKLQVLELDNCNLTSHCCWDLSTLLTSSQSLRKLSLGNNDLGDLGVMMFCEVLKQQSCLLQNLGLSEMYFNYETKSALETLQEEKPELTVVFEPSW

Row | SMILES | IC50 [nM]
1 | CN(C)C1CCN(CCCS(=O)(=O)NC(=O)Nc2c3c(cc4c2CCC4)CCC3)CC1 [Example 2, 3-(4-(Dimethylamino)piperidin-1-yl)-N-((1,2,3,5,6,7-hexahydro-s-indacen-4-yl)carbamoyl)propane-1-sulfonamide, potassium salt] | 2000 to 10000
2 | CC(=O)NCCS(=O)(=O)NC(=O)Nc1c2c(cc3c1CCC3)CCC2 [Example 6, N-(2-(N-((1,2,3,5,6,7-Hexahydro-s-indacen-4-yl)carbamoyl)sulfamoyl)ethyl)acetamide, Potassium Salt] | 2000 to 10000
3 | O=C(Nc1c2c(cc3c1CCC3)CCC2)NS(=O)(=O)CCCCN1CCOCC1 [Example 9, N-((1,2,3,5,6,7-Hexahydro-s-indacen-4-yl)carbamoyl)-4-morpholinobutane-1-sulfonamide, Potassium Salt] | 2000 to 10000
4 | O=C(Nc1c2c(cc3c1CCC3)CCC2)NS(=O)(=O)CCCN1CCOCC1 [Example 15, N-((1,2,3,5,6,7-Hexahydro-s-indacen-4-yl)carbamoyl)-3-morpholinopropane-1-sulfonamide, Potassium Salt] | 1600 to 2000
5 | O=C(Nc1c2c(cc3c1CCC3)CCC2)NS(=O)(=O)CCCN1CCCCC1 [Example 16, N-((1,2,3,5,6,7-Hexahydro-s-indacen-4-yl)carbamoyl)-3-(piperidin-1-yl)propane-1-sulfonamide, Potassium Salt] | 1600 to 2000
6 | CCN(CC)CCS(=O)(=O)NC(=O)Nc1c2c(cc3c1CCC3)CCC2 [Example 18, 2-(Diethylamino)-N-((1,2,3,5,6,7-hexahydro-s-indacen-4-yl)carbamoyl)ethane-1-sulfonamide, potassium salt] | 2000 to 10000
7 | CN1CCC(CS(=O)(=O)NC(=O)Nc2c3c(cc4c2CCC4)CCC3)CC1 [Example 22, N-((1,2,3,5,6,7-Hexahydro-s-indacen-4-yl)carbamoyl)-1-(1-methylpiperidin-4-yl)methanesulfonamide, Potassium Salt] | 2000 to 10000
8 | CC(C)N1CCC(CS(=O)(=O)NC(=O)Nc2c3c(cc4c2CCC4)CCC3)C1 (centres unmarked) [Example 25, N-((1,2,3,5,6,7-Hexahydro-s-indacen-4-yl)carbamoyl)-1-(1-isopropylpyrrolidin-3-yl)methanesulfonamide, Potassium Salt] | 2000 to 10000
9 | CC(CN(C)C)S(=O)(=O)NC(=O)Nc1c2c(cc3c1CCC3)CCC2 (centres unmarked) [Example 26, 1-(Dimethylamino)-N-((1,2,3,5,6,7-hexahydro-s-indacen-4-yl)carbamoyl)propane-2-sulfonamide, potassium salt] | 2000 to 10000
10 | CCN1CC2(CC(S(=O)(=O)NC(=O)Nc3c4c(cc5c3CCC5)CCC4)C2)C1 [Example 38, 2-Ethyl-N-((1,2,3,5,6,7-hexahydro-s-indacen-4-yl)carbamoyl)-2-azaspiro[3.3]heptane-6-sulfonamide, potassium salt] | 2000 to 10000
11 | CC(C)N1CC2(CC(S(=O)(=O)NC(=O)Nc3c4c(cc5c3CCC5)CCC4)C2)C1 [Example 39, N-((1,2,3,5,6,7-Hexahydro-s-indacen-4-yl)carbamoyl)-2-isopropyl-2-azaspiro[3.3]heptane-6-sulfonamide, potassium salt] | 2000 to 10000
12 | CN1CC2(CC(S(=O)(=O)NC(=O)Nc3c4c(cc5c3CCC5)CCC4)C2)C1 [Example 40, N-((1,2,3,5,6,7-Hexahydro-s-indacen-4-yl)carbamoyl)-2-methyl-2-azaspiro[3.3]heptane-6-sulfonamide, potassium salt] | 2000 to 10000
13 | CCN(CCCS(=O)(=O)NC(=O)Nc1c(-c2ccnc(C#N)c2)cc(F)cc1C(C)C)Cc1ccccc1 [Example 46, 3-(Benzyl(ethyl)amino)-N-((2-(2-cyanopyridin-4-yl)-4-fluoro-6-isopropylphenyl)carbamoyl)propane-1-sulfonamide] | 2000 to 10000
14 | COCCCS(=O)(=O)NC(=O)Nc1c(-c2ccnc(C#N)c2)cc(F)cc1C(C)C [Example 49, N-((2-(2-Cyanopyridin-4-yl)-4-fluoro-6-isopropylphenyl)carbamoyl)-3-methoxypropane-1-sulfonamide] | 2000 to 10000
15 | COc1cc(-c2cc(F)cc(C(C)C)c2NC(=O)NS(=O)(=O)Cc2cccnc2)ccn1 [Example 54, N-((4-Fluoro-2-isopropyl-6-(2-methoxypyridin-4-yl)phenyl)carbamoyl)-1-(pyridin-3-yl)methanesulfonamide] | 2000 to 10000
16 | COc1cc(-c2ccc3c(c2NC(=O)NS(=O)(=O)Cc2cccnc2)CCC3)ccn1 [Example 55, N-((5-(2-Methoxypyridin-4-yl)-2,3-dihydro-1H-inden-4-yl)carbamoyl)-1-(pyridin-3-yl)methanesulfonamide] | 2000 to 10000
17 | O=C(Nc1c(-c2ccncc2)cc(F)c2c1CCC2)NS(=O)(=O)Cc1cccnc1 [Example 56, N-((7-Fluoro-5-(pyridin-4-yl)-2,3-dihydro-1H-inden-4-yl)carbamoyl)-1-(pyridin-3-yl)methanesulfonamide] | 2000 to 10000
18 | CC(C)c1cc(F)cc(-c2ccnc(C#N)c2)c1NC(=O)NS(=O)(=O)CC1CCN(C)C1 (centres unmarked) [Example 57, N-((2-(2-Cyanopyridin-4-yl)-4-fluoro-6-isopropylphenyl)carbamoyl)-1-(1-methylpyrrolidin-3-yl)methanesulfonamide] | 2000 to 10000
19 | CN1CCC(CS(=O)(=O)NC(=O)Nc2c(-c3ccncc3)cc(F)c3c2CCC3)C1 (centres unmarked) [Example 60, N-((7-Fluoro-5-(pyridin-4-yl)-2,3-dihydro-1H-inden-4-yl)carbamoyl)-1-(1-methylpyrrolidin-3-yl)methanesulfonamide] | 2000 to 10000
20 | CCN(C(C)=O)C1CCC(S(=O)(=O)NC(=O)Nc2c3c(cc4c2CCC4)CCC3)CC1 (centres unmarked) [Example 63, N-ethyl-N-(4-(N-((1,2,3,5,6,7-hexahydro-s-indacen-4-yl)carbamoyl)sulfamoyl)cyclohexyl)acetamide] | 2000 to 10000
21 | O=C(Nc1c2c(cc3c1CCC3)CCC2)NS(=O)(=O)CC1CCN(C2COC2)C1 (centres unmarked) [Example 64, N-((1,2,3,5,6,7-Hexahydro-s-indacen-4-yl)carbamoyl)-1-(1-(oxetan-3-yl)pyrrolidin-3-yl)methanesulfonamide, Potassium Salt] | 2000 to 10000
22 | NCCCS(=O)(=O)NC(=O)Nc1c2c(cc3c1CCC3)CCC2 [Example 65, 3-Amino-N-((1,2,3,5,6,7-hexahydro-s-indacen-4-yl)carbamoyl) propane-1-sulfonamide potassium salt] | 2000 to 10000
23 | C[N+](C)(C)CCCS(=O)(=O)NC(=O)Nc1c2c(cc3c1CCC3)CCC2 [Example 66, 3-(N-((1,2,3,5,6,7-Hexahydro-s-indacen-4-yl)carbamoyl)sulfamoyl)-N,N,N-trimethylpropan-1-aminium, Potassium Salt] | 2000 to 10000
24 | CC1(C)C2CC[C@@]1(CS(=O)(=O)NC(=O)Nc1c3c(cc4c1CCC4)CCC3)C(N)C2 (stereo partly drawn) [Example 85, 1-((1S)-2-Amino-7,7-dimethylbicyclo[2.2.1]heptan-1-yl)-N-((1,2,3,5,6,7-hexahydro-s-indacen-4-yl)carbamoyl)methanesulfonamide] | 2000 to 10000
25 | O=C(Nc1c2c(cc3c1CCC3)CCC2)NS(=O)(=O)CCCCN1CCC1 [Example 86, 4-(Azetidin-1-yl)-N-((1,2,3,5,6,7-hexahydro-s-indacen-4-yl)carbamoyl)butane-1-sulfonamide] | 2000 to 10000
26 | O=C(Nc1c2c(cc3c1CCC3)CCC2)NS(=O)(=O)C1(CN2CCC2)CC1 [Example 87, 1-(Azetidin-1-ylmethyl)-N-((1,2,3,5,6,7-hexahydro-s-indacen-4-yl)carbamoyl)cyclopropane-1-sulfonamide] | 1600 to 2000
